The values below come from patent US8124121B2, “Flavors, flavor modifiers, tastants, taste enhancers, umami or sweet tastants, and/or enhancers and use thereof” (Senomyx, Inc., priority 2003, dated 2012).

For experiment [1], the system named is savory taste, human panelists. Briefly: Umami/savory flavor experiments using human panelists (trained panel, difference from reference). The class given is in vivo. The settings on record: 12 mM MSG + cpd vs reference 12 mM MSG + 100 μM IMP. On the procedure: General Panelist Selection: Basic screening of sensory taste testers: Potential panelists were tested for their abilities to rank and rate intensities of solutions representing the five basic tastes. Panelists ranked and rated intensity of five different concentrations of each of the five following compounds: sucrose (sweet), sodium chloride (salty), citric acid (sour), caffeine (bitter), and monosodium glutamate (savory). In order to be selected for participation in testing, panelists needed to correctly rank and rate samples for intensity, with a reasonable number of errors
Preliminary Taste Tests: The panelists selected in the above procedure were deemed qualified for performing Preliminary Taste Testing procedures. The preliminary taste tests are used to evaluate new compounds for intensity of basic tastes and off-tastes. A small group of panelists (n=5) taste approximately 5 concentrations of the compound (range typically between 1-100 μM, in half-log cycles, e.g., 1, 3, 10, 30, and 100 μM) in water and in a solution of 12 mM MSG to evaluate enhancement. Panelists rate the five basic tastes (sweet, salty, sour, bitter, and savory) as well as off-tastes (such as chemical, metallic, sulfur) on a labeled magnitude scale. Samples are served in 10 mL portions at room temperature. The purpose of the test is to determine the highest concentration at which there is no objectionable off-taste, and determine if obvious savory taste or enhancement of savory taste exists at any of the concentrations tested.
Trained Panelist Selection: A trained expert panel was used to further evaluate compounds that had been tested with the preliminary taste test.
Panelists for the trained panel were selected from the larger group of qualifying taste panelists. Panelists were further trained on savory taste by ranking and rating experiments using MSG and IMP combinations. Panelists completed a series of ranking, rating, and difference from reference tests with savory solutions. In ranking and rating experiments, panelists evaluated easy MSG concentrations (0, 6, 18, 36 mM) and more difficult MSG concentrations (3, 6, 12, 18 mM MSG) in water.
Compound testing with Trained Panel: Compounds tested by the trained panel were evaluated in difference from reference experiments. […] Test samples were solutions with varying amounts of MSG, IMP, and the compound.
Compounds were tested against the reference in samples with and without 12 mM MSG. All samples were presented in 10 ml volumes at room temperature. Two sessions were completed for each compound tested to evaluate panel reproducibility.

Experiment [2] deals with T1, hT1R1/hT1R3 umami receptor (Homo sapiens, UniProt Q7RTX0+Q7RTX1).
T1 construct: expressed in transfected cells; host or cells: HEK293 derivative stably expressing Gα15, clone I-17, expression induced with mifepristone
T1 sequence (Q7RTX1 21-841): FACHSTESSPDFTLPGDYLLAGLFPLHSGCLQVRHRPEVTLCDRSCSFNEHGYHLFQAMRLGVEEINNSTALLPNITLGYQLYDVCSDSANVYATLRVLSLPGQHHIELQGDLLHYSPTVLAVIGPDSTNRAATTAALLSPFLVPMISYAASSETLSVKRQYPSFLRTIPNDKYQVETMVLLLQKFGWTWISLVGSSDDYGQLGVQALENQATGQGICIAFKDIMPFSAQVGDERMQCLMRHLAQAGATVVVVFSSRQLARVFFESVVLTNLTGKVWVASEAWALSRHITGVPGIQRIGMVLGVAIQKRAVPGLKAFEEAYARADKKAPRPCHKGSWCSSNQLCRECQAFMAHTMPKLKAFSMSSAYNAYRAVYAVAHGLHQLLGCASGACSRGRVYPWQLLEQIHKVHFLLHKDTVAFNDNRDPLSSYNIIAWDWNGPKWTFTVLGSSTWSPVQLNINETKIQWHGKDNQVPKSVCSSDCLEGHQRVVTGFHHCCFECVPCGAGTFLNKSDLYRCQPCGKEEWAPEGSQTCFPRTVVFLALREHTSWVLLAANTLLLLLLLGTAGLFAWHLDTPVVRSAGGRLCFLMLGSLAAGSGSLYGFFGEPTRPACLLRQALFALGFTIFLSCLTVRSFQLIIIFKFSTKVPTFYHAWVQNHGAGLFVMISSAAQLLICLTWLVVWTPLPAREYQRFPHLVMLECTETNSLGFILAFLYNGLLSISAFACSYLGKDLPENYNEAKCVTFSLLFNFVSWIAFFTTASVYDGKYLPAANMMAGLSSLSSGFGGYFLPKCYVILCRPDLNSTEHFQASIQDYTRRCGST
T1 sequence (Q7RTX0 21-852): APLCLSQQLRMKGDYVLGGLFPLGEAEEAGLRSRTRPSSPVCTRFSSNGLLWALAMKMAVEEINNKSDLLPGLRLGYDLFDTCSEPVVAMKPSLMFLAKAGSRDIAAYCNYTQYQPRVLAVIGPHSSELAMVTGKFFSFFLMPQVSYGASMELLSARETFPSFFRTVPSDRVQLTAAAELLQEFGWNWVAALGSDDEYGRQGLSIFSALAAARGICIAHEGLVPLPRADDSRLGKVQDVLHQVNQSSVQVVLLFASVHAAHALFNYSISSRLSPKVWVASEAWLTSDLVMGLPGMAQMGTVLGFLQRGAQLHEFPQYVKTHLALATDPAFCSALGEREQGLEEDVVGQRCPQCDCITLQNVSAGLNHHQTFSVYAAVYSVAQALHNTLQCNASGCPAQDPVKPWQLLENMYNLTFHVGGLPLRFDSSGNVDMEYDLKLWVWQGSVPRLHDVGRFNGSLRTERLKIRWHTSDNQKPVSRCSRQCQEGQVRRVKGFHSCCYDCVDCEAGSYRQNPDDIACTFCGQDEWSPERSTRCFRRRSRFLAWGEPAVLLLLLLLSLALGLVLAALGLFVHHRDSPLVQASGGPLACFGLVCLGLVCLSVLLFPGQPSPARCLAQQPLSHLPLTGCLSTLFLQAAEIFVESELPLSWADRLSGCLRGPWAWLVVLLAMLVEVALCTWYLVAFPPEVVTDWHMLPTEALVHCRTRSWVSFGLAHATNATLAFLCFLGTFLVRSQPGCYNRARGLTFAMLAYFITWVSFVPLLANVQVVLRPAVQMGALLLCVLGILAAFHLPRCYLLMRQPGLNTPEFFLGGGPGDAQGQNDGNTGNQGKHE
Briefly: Umami taste enhancement activity assay (EC50 ratio vs. MSG). The class given is cell-based. On the procedure:
A series of measurements of the dose response is run in solutions comprising MSG alone, then a second dose response is run with MSG in combination with predetermined amounts of a candidate compound of Formula (I) at the same time.
Typical compound concentrations tested were 30 μM, 10 μM, 3 μM, 1 μM, 0.3 μM, 0.1 μM and 0.03 μM. The relative efficacy of compounds of Formula (I) at enhancing the receptor was determined by calculating the magnitude of a shift in the EC50 for monosodium glutamate. Enhancement was defined as a ratio (EC50R) corresponding to the EC50 of monosodium glutamate, determined in the absence of the test compound, divided by the EC50 of monosodium glutamate, determined in the presence of the test compound.
Stated alternatively, “EC50 ratio” as compared to MSG is calculated based on the following definitions: EC50 Ratio vs. MSG=EC50 (MSG)/EC50(MSG+[Compound]) • wherein “[compound]” refers to the concentration of the compound of Formula (I) used to elicit (or enhance or potentiate) the MSG dose response.

Consider `COC(=O)[C@@H](CC(C)C)NC(=O)c1cc(C)c(C)o1` [Example 98, (R)-methyl-2-(2,3-dimethylfuran-5-carboxamido)-4-methylpentanoate], for which the “Taste Data: concentration of cpd with 12 mM MSG that is as strong as 12 mM MSG + 100 μM IMP” value (shortened to “Taste Data: concentration of cpd”) in experiment [1] is on record as 12 mM MSG + 10 μM cpd as strong as.

On to `COc1ccc(CNC(=O)C(=O)NCCc2ccccn2)c(OC)c1` [Example 123, N-(2,4-Dimethoxy-benzyl)-N′-(2-pyridin-2-yl-ethyl)-oxalamide], for which the “Taste Data: concentration of cpd” value in experiment [1] is 12 mM MSG + 1 μM cpd as strong as. In addition, in experiment [2] (compound present at 0.3 μM), the “EC50 ratio (enhanced the effectiveness of monosodium glutamate)” value was found to be 6.51.

Take `COC[C@@H](CC(C)C)NC(=O)c1ccc(C)c(C)c1` [Example 71, (R)—N-(1-methoxy-4-methylpentan-2-yl)-3,4-dimethylbenzamide]: the “Taste Data: concentration of cpd” value in experiment [1] is 12 mM MSG + 3 μM cpd as strong as.

As to `COC(=O)[C@@H](CC(C)C)NC(=O)c1ccc2c(c1)OCO2` [Example 6, (R)-methyl 2-(benzo[d][1,3]dioxole-6-carboxamido)-4-methylpentanoate], the “Taste Data: concentration of cpd” value in experiment [1] is 12 mM MSG + 10 μM cpd as strong as. Besides, the “EC50 ratio (enhanced the effectiveness of monosodium glutamate)” value in experiment [2] (compound present at 0.1 μM) is listed as 4.9.

With `CCCC(CCC)NC(=O)c1ccc2c(c1)OCO2` [Example 1, N-(heptan-4-yl)benzo[d][1,3]dioxole-5-carboxamide], the “Taste Data: concentration of cpd” value in experiment [1] is recorded as 12 mM MSG + 3 μM cpd as strong as. Further, in experiment [2] (compound present at 0.03 μM), the “EC50 ratio (enhanced the effectiveness of monosodium glutamate)” value came out at 6.92.

Take `CCCC(CCC)NC(=O)c1ccc2c(c1)OC(C(C)C)O2` (stereo not shown) [Example 21, N-(heptan-4-yl)-2-isopropylbenzo[d][1,3]dioxole-5-carboxamide]: in experiment [2] (compound present at 3 μM), the “EC50 ratio (enhanced the effectiveness of monosodium glutamate)” value is given as 2.2.

With `COc1ccc(CNC(=O)c2sccc2C)c(OC)c1` [Example 108, 3-Methyl-thiophene-2-carboxylic Acid 2,4-dimethoxy-benzylamide], in experiment [2] (compound present at 3 μM), the “EC50 ratio (enhanced the effectiveness of monosodium glutamate)” value is 5.8.

Regarding `O=C(NC1CCc2ccccc21)c1ccc2c(c1)OCO2` (stereo not shown) [Example 118, Benzo[1,3]dioxole-5-carboxylic Acid indan-1-ylamide], the “EC50 ratio (enhanced the effectiveness of monosodium glutamate)” value in experiment [2] (compound present at 0.3 μM) is reported as 5.33.

`O=C(NC1CCCc2ccccc21)c1ccc2c(c1)OCO2` (stereo not shown) [Example 7, N-(1,2,3,4-tetrahydronaphthalen-1-yl)benzo[d][1,3]dioxole-5-carboxamide]: the “EC50 ratio (enhanced the effectiveness of monosodium glutamate)” value in experiment [2] (compound present at 0.3 μM) came to 7.8.

As for `COC[C@@H](CC(C)C)NC(=O)c1ccc(OC)c(C)c1` [Example 104, 4-Methoxy-N-(1-methoxymethyl-3-methyl-butyl)-3-methyl-benzamide], in experiment [1], the “Taste Data: concentration of cpd” value is 12 mM MSG + 3 μM cpd as strong as.
